Counter-ions that a name gives are not always drawn. Where a SMILES comes first, the peptide text is derived from it.
Experiments:
Type in all cases: cell-based
[1] = test system: COL1A1; experiment: In vitro efficacy in semi-activated LX2 cells, qPCR: COL1A1; details: Homo sapiens, 48 hours, Q-PCR, read-out: COL1A1 mRNA inhibition rate; for inhibition at 50 µM: LX-2, 50 µM; for inhibition at 25 µM: LX-2, test concentration 25 μM
[2] = test system: COL3A1; experiment: In vitro efficacy in semi-activated LX2 cells, qPCR: COL3A1; details: Homo sapiens, 48 hours, Q-PCR, read-out: COL3A1 mRNA inhibition rate; for inhibition at 50 µM: LX-2, 50 µM; for inhibition at 25 µM: LX-2, test concentration 25 μM
[3] = test system: collagen I and collagen III; experiment: Semi-activated LX2 cells, qPCR: collagen I and collagen III at the mRNA level; details: 48 hours, Q-PCR, Table 2
In short: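 LX-2 human hepatic stellate cells, adhered 12 h, were treated with 50 µM test compound for 48 h. Total RNA was extracted, and COL1A1, COL1A2 and COL3A1 mRNA were measured by SYBR Green qPCR.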

[4] = test system: FN; experiment: Semi-activated LX2 cells, Western blot: FN protein; details: 50-400 μM, 48 hours, FIG. 3, vs 50 μM aspartic acid
[5] = test system: NS3TP1; experiment: Regulation of NS3TP1 in semi-activated LX2 cells, qPCR; details: LX-2 cells, 48 hours, Q-PCR, vs control group
Protocol: (§1) Test compounds were added to the LX-2 cells respectively, and total RNA in the cells was extracted 48 hours later. This experiment was performed strictly in accordance with the instructions of the Total RNA Kit. The steps were as follows (note: this experiment was performed on ice throughout the entire process, and special RNase-free tips were used throughout the entire process): • 1) The 12-well cell culture plate was taken out from the incubator, the cell culture medium was discarded, the cells were washed twice with 1 mL of 1×PBS, and a negative pressure suction device was used to fully remove PBS; • 2) 350 μL of TRK Lysis Buffer mixture/well was prepared as needed (mixture preparation method: 1 mL of TRKLysis Buffer+20 μL of β-mercaptoethanol), vortexed and mixed well. 350 μL was added to each well of the 12-well cell culture plate, and allowed to stand at room temperature for 5 minutes to fully lyse the cells; • 3) 70% ethanol/well was prepared as needed, vortexed and mixed well. 350 μL was added to each well of the 12-well cell culture plate, mixed well by shaking, and transferred to the spin column (spin column+collection tube were assembled); • 4) Centrifugation was performed at 4° C., 12000 g for 60 sec. The waste liquid was discarded after centrifugation, while the spin column was kept; • 5) 500 μL of RNA Wash Buffer I was added, centrifuged at 4° C., 12000 g for 60 sec, the waste liquid was discarded after centrifugation, and the collection column was kept; • 6) 500 μL of RNA Wash Buffer II (confirmed that ethanol had been added) was added, centrifuged at 4° C., 12000 g for 60 sec, the waste liquid was discarded after centrifugation, and the collection column was kept; • 7) step 6) was repeated once again, centrifugation was performed at 4° C., 12000 g for 90 sec, the waste liquid was discarded after centrifugation, and the collection column was kept; • 8) Centrifugation was performed at 4° C., 12000 g for 120 sec to ensure that the spin column was fully dried; • 9) The dried spin column was inserted into a new 1.5 mL EP tube, and 30 μL of DEPC water was added to the membrane in the center of the spin column. It should be careful not to touch the EP tube cover in this step. It was allowed to stand at room temperature for 5 minutes to ensure that the RNA was fully dissolved in DEPC water. Centrifugation was performed at 4° C., 12000 g for 60 sec, and the EP tube was kept; • 10) NanoDrop ultra-micro-volume spectrophotometer was used to detect RNA concentration;
(§2) 5.2 Reverse transcription of RNA into cDNA: According to the instructions of PrimeScript™ RT reagent Kit (Perfect Real Time), the specific experimental steps were as follows:
(§3) 5.3 Q-PCR detection of target gene expression: According to the instructions of Power SYBR® Green PCR Master Mix, the specific operations were as follows:
(§4) After the reaction was completed, the amplification curve and dissolution curve of Q-PCR were confirmed, and the relative quantification method ([…]) was used to perform data analysis on the experimental results.
LX2 cells were passaged and plated normally. […] After 48 hours, the cells were collected, total RNA was extracted, and the expression of NS3TP1 gene was detected using Q-PCR method.

[6] = test system: collagen I; experiment: Activated LX2 cells (TGFβ1), Western blot: Collagen I; details: LX2 cells stimulated with TGFβ1 (5 ng/mL), 24 hours, FIG. 4
[7] = test system: α-SMA; experiment: Activated LX2 cells (TGFβ1), Western blot: α-SMA; details: LX2 cells stimulated with TGFβ1 (5 ng/mL), 24 hours, FIG. 4
[8] = test system: COL1A2; experiment: In vitro efficacy in semi-activated LX2 cells, qPCR: COL1A2; details: Homo sapiens, LX-2, 48 hours, Q-PCR, read-out: COL1A2 mRNA inhibition rate
Protocol: as §1, §2, §3, §4
(§5) LX2 cells were passaged and plated normally. After adherent growth for 12 hours, 50 µM of the test compound was added. After 48 hours, the cells were collected, total RNA was extracted, and Q-PCR was used to detect the changes in the mRNA expression levels of liver fibrosis-related genes (ACTA2 encoding α-SMA, COL1A1 and COLIA2 encoding collagen I, COL3A1 encoding collagen III, SMAD3 encoding Smad3) and inflammation-related genes (IL1β encoding IL-1β, TNFα encoding TNFα) (for specific methods, see 5. Q-PCR detection of target gene expression as described above). α-SMA was a marker of hepatic stellate cell activation, and collagen I and collagen III were the main components of extracellular matrix deposition.

[9] = test system: liver fibrosis-related genes; experiment: Semi-activated LX2 cells, qPCR: liver fibrosis-related genes overall; details: 48 hours, Q-PCR, Table 2
Protocol: as §1, §3, §5

[10] = test system: α-SMA; experiment: Semi-activated LX2 cells, Western blot: α-SMA protein; details: 50-400 μM, 48 hours, FIG. 2, vs 50 μM aspartic acid
[11] = test system: Smad3; experiment: In vitro efficacy in semi-activated LX2 cells, qPCR: Smad3; details: Homo sapiens, 48 hours, Q-PCR, read-out: Smad3 mRNA inhibition rate
In short: (§6)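 LX-2 cells, 50 µM compound, 48 h; RNA extraction → RT → SYBR Green qPCR; fold change by relative quantification.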

[12] = test system: IL-1β; experiment: In vitro efficacy in semi-activated LX2 cells, qPCR: IL-1β; details: Homo sapiens, 48 hours, Q-PCR, read-out: IL-1β mRNA inhibition rate; for inhibition at 25 µM: LX-2, test concentration 25 μM
[13] = test system: COL1A2; experiment: In vitro efficacy in semi-activated LX2 cells, qPCR: COL1A2; details: Homo sapiens, 48 hours, Q-PCR, read-out: COL1A2 mRNA inhibition rate; for inhibition at 25 µM: LX-2, test concentration 25 μM
[14] = test system: TNF-α; experiment: In vitro efficacy in semi-activated LX2 cells, qPCR: TNF-α; details: Homo sapiens, 48 hours, Q-PCR, read-out: TNF-α mRNA inhibition rate
[15] = test system: α-SMA; experiment: In vitro efficacy in semi-activated LX2 cells, qPCR: α-SMA; details: test concentration 25 μM, 48 hours, Q-PCR, read-out: α-SMA mRNA inhibition rate
In short: as §6

[16] = test system: TNF-α; experiment: In vitro efficacy in semi-activated LX2 cells, qPCR: TNF-α; details: Homo sapiens, LX-2, 48 hours, Q-PCR, read-out: TNF-α mRNA inhibition rate
Protocol: as §1, §2, §3, §4, §5

[17] = LX-2, test concentration 12.5 μM

With `CC(C)OC(=O)[C@@H](N)CC(=O)O` [Compound 50, 1-isopropyl L-aspartic acid ester hydrochloride] the inhibition at 50 µM [1] was 25 to 50%, the inhibition at 50 µM [2] was 1 to 10% and the “inhibition of the expression of collagen I and collagen III at the mRNA level” value (“inhibition of the expression … at the mRNA level” below) [3] was “could inhibit”. For the same compound, the “inhibitory effect on FN protein expression as compared to ASP” value [4] was “stronger inhibitory effects”.

`COC(=O)C[C@H](N)C(=O)OCCOC(=O)[C@@H](N)CC(=O)OC` [Compound 77a, O′1,O1-(ethan-1,2-diyl)4-dimethyl (2S,2'S)-bis (2-aminosuccinate) hydrochloride] was tested, and the “Up-regulation of NS3TP1” value ([5]; 200 µM compound) was “C (C represented that the up-regulation was 1~20%)”, the “expression of Collagen I in the cells” value [6] was “significantly decreased” and the “expression of α-SMA in the cells” value [7] was “significantly decreased”.

`CC(C)OC(=O)OCOC(=O)C[C@H](N)C(=O)O` [Compound 52, 4-(((isopropoxycarbonyl)oxy)methyl) L-aspartic acid ester hydrochloride] was tested, and the inhibition at 50 µM [1] was 25 to 50%, the inhibition at 50 µM [8] was 1 to 10% and the inhibition at 50 µM [2] was 25 to 50%. The “inhibition of the expression … at the mRNA level” value [3] was “could inhibit”, the “inhibition of the mRNA expression levels of liver fibrosis-related genes (overall)” value [9] was “stronger effects” and the “inhibitory effect on α-SMA protein as compared to ASP” value [10] was “stronger inhibitory effects”. The “inhibitory effect on FN protein expression as compared to ASP” value [4] was “stronger inhibitory effects”.

`CN[C@@H](CC(=O)O)C(=O)O` [Compound 3] showed an inhibition at 12.5 µM [1, 17] of 25 to 50%, an inhibition at 12.5 µM [2, 17] of 1 to 10% and an inhibition at 12.5 µM [11, 17] of 1 to 10%. The inhibition at 12.5 µM [12, 17] was 1 to 10%, the inhibition at 12.5 µM [13, 17] was 1 to 10% and the inhibition at 12.5 µM [14, 17] was 1 to 10%.

With `N[C@@H](CC(=O)OCOC(=O)C[C@H](N)C(=O)O)C(=O)O` [Compound 55, (2S,2'S)-4,4′-(methylenebis (oxy))bis (2-amino-4-oxobutyric acid) hydrochloride] the inhibition at 25 µM [1] was 1 to 10%, the inhibition at 25 µM [2] was 1 to 10% and the inhibition at 25 µM [15] was 1 to 10%. For the same compound, the inhibition at 25 µM [12] was 1 to 10% and the inhibition at 25 µM [13] was 1 to 10%.

`COC(=O)C[C@H](N)C(=O)OCCOC(=O)C[C@H](N)C(=O)OC` [Compound 78a, 4-(2-(S)-2-amino-4-methoxy-4-oxobutyryl)ethyl)1-methyl L-aspartic acid ester hydrochloride] was tested, and the “Up-regulation of NS3TP1” value ([5]; test concentration 12.5 μM) was “C (C represented that the up-regulation was 1~20%)”, the “expression of Collagen I in the cells” value [6] was “significantly decreased” and the “expression of α-SMA in the cells” value [7] was “significantly decreased”.

`COC(=O)[C@H](Cc1ccccc1)NC(=O)[C@@H](N)CC(=O)O` [Compound 48] (HELM PEPTIDE1{D.F.[CO[*:1]]}$$$$V2.0) was tested, and the inhibition at 50 µM [1] was 25 to 50%, the inhibition at 50 µM [2] was 10 to 25% and the inhibition at 50 µM [16] was 1 to 10%. For the same compound, the “inhibition of the expression … at the mRNA level” value [3] was “could inhibit”, the “inhibition of the mRNA expression levels of liver fibrosis-related genes (overall)” value [9] was “stronger effects” and the “inhibitory effect on α-SMA protein as compared to ASP” value [10] was “stronger inhibitory effects”.

`N[C@@H](CS(=O)O)C(=O)O` [Compound 46] showed an inhibition at 25 µM [13] of 1 to 10%.

`C[S+]([O-])C[C@H](N)C(=O)O` (stereo partly drawn) [Compound 45] showed an inhibition at 25 µM [1] of 1 to 10%, an inhibition at 25 µM [2] of 1 to 10% and an inhibition at 25 µM [15] of 1 to 10%. It also gave an inhibition at 25 µM ([11]; LX-2, test concentration 25 μM) of 1 to 10%, an inhibition at 25 µM [12] of 1 to 10% and an inhibition at 25 µM [13] of 1 to 10%. It also gave an inhibition at 25 µM ([14]; LX-2, test concentration 25 μM) of 1 to 10%.

— US20250025438A1, “Derivative of aspartic acid and use thereof in treatment of metabolic diseases such as hepatic fibrosis and non-alcoholic hepatitis” (SHENZHEN JINGTAI TECHNOLOGY CO., LTD., priority 2021, published 2025)
